Source: publication PMC6272684, “Synthesis, Antiproliferative and Antifungal Activities of 1,2,3-Triazole-Substituted Carnosic Acid and Carnosol Derivatives” (Molecules, 2015)

Tests used:
C. albicans ATCC 10231 = assay: Antifungal broth microdilution (CLSI M27-A3), growth inhibition; format: cell-based, Candida albicans; conditions: for MIC50 (minimum concentration to inhibit 50% of fungal growth), C. albicans: C. albicans ATCC 10231
Method in brief: (§1)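 Yeast inocula (1–5 × 10^3 CFU/mL) were tested by CLSI M27-A3 broth microdilution in RPMI-1640 at 250–3.9 μg∙mL^−1 (DMSO ≤1%) for 48 h at 30 °C in the dark. Growth was read at OD405, and % inhibition was calculated against growth and sterility controls in triplicate. MIC100 is total inhibition; MIC50 is 50% inhibition.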

[1] = system: lung cancer (SK-MES-1) cells; assay: Antiproliferative assay (MTT reduction, 3 days); format: cell-based, human; conditions: >100 µM considered inactive, read-out: IC50 ± SD, SK-MES-1
Method: (§2) The antiproliferative activity towards the following human cell lines was determined: normal lung fibroblasts (MRC-5), gastric epithelial adenocarcinoma (AGS), lung cancer (SK-MES-1) and bladder carcinoma (J82) cells.
(§3) All human cell lines used in this work were purchased from the American Type Culture Collection (ATCC, Manasas, VA, USA). […] All media were supplemented with 10% heat-inactivated FBS, 100 IU∙mL^−1 penicillin and 100 µg∙mL^−1 streptomycin. Cells were grown in a humidified incubator with 5% CO2 in air at 37 °C. For the antiproliferative assay, cells were plated at a density of 5 × 10^4 cells∙mL^−1. Cells were seeded in 96-well plates (100 µL∙well^−1). One day after seeding, cells were treated with medium containing the compounds at concentrations ranging from 0 up to 100 µM during 3 days. The compounds were dissolved in DMSO (1% final concentration) and complete medium. Untreated cells (medium containing 1% DMSO) were used as 100% viability controls. […] Each concentration was tested in sextuplicate and experiments were repeated 2 times. Cell viability was determined by means of the MTT reduction assay at the end of the incubation with the products. […] The software used was OriginPro 8.1 [30].

[2] = system: normal lung fibroblasts (MRC-5); assay: Antiproliferative assay (MTT reduction, 3 days); format: cell-based, human; conditions: MRC-5 normal fibroblasts, >100 µM considered inactive, read-out: IC50 ± SD, MRC-5
Method: as §2, §3

C. neoformans ATCC 32264 = assay: Antifungal broth microdilution (CLSI M27-A3), growth inhibition; format: cell-based, Cryptococcus neoformans; conditions: for MIC50 (minimum concentration to inhibit 50% of fungal growth), C. neoformans: C. neoformans ATCC 32264
Method in brief: as §1

[3] = system: gastric epithelial adenocarcinoma (AGS) cells; assay: Antiproliferative assay (MTT reduction, 3 days); format: cell-based, human; conditions: >100 µM considered inactive, read-out: IC50 ± SD, AGS
Method: (§4) The antiproliferative activity towards the following human cell lines was determined: normal lung fibroblasts (MRC-5), gastric epithelial adenocarcinoma (AGS), lung cancer (SK-MES-1) and bladder carcinoma (J82) cells. […] When comparing the pairs 3–4, 5–6 and 7–8 differing in one CH2 unit in the linker, the activity decreased with linker length.
(§5) All human cell lines used in this work were purchased from the American Type Culture Collection (ATCC, Manasas, VA, USA). Normal lung MRC-5 fibroblasts (CCL-171), SK-MES-1 lung cancer cells (HTB-58) and J82 bladder carcinoma cells (HTB-1) were grown as monolayers in minimum essential Eagle medium (MEM) with Earles’s salts, 2 mM L-glutamine and 1.5 g∙L^−1 sodium bicarbonate. Gastric adenocarcinoma AGS cells (CRL-1739) were grown as monolayers in Ham F-12 medium containing 1 mM L-glutamine and 1.5 g∙L^−1 sodium bicarbonate. All media were supplemented with 10% heat-inactivated FBS, 100 IU∙mL^−1 penicillin and 100 µg∙mL^−1 streptomycin. Cells were grown in a humidified incubator with 5% CO2 in air at 37 °C. For the antiproliferative assay, cells were plated at a density of 5 × 10^4 cells∙mL^−1. Cells were seeded in 96-well plates (100 µL∙well^−1). One day after seeding, cells were treated with medium containing the compounds at concentrations ranging from 0 up to 100 µM during 3 days. The compounds were dissolved in DMSO (1% final concentration) and complete medium. Untreated cells (medium containing 1% DMSO) were used as 100% viability controls. […] Each concentration was tested in sextuplicate and experiments were repeated 2 times. Cell viability was determined by means of the MTT reduction assay at the end of the incubation with the products. The results were transformed to percentage of controls and the IC50 value was obtained adjusting the dose-response curve to a sigmoidal model. The software used was OriginPro 8.1 [30].

[4] = system: bladder carcinoma (J82) cells; assay: Antiproliferative assay (MTT reduction, 3 days); format: cell-based, human; conditions: J82 cells, 3 days, MTT; >100 µM considered inactive; read-out: IC50 ± SD, J82
Method: as §4, §5

| Compound | Inhibition percentage against C. albicans ATCC 10231 (C. albicans ATCC 10231; 3.9 μg∙mL^−1, 48 h) [%] | Inhibition percentage against C. albicans ATCC 10231 (C. albicans ATCC 10231; 7.8 μg∙mL^−1, 48 h) [%] | Inhibition percentage against C. albicans ATCC 10231 (C. albicans ATCC 10231; 15.6 μg∙mL^−1, 48 h) [%] | Inhibition percentage against C. albicans ATCC 10231 (C. albicans ATCC 10231; 62.5 μg∙mL^−1, 48 h) [%] | Inhibition percentage against C. albicans ATCC 10231 (C. albicans ATCC 10231; 125 μg∙mL^−1, 48 h) [%] | Inhibition percentage against C. albicans ATCC 10231 (C. albicans ATCC 10231; 250 μg∙mL^−1, 48 h) [%] | Inhibition percentage against C. albicans ATCC 10231 (C. albicans ATCC 10231; 31. μg∙mL^−1, 48 h) [%] | MIC50 (minimum concentration to inhibit 50% of fungal growth), C. albicans (C. albicans ATCC 10231) [µg/mL] | IC50 [1] [µM] | IC50 [2] [µM] | Inhibition percentage against C. neoformans ATCC 32264 (C. neoformans ATCC 32264; 3.9 μg∙mL^−1, 48 h) [%] | Inhibition percentage against C. neoformans ATCC 32264 (C. neoformans ATCC 32264; 7.8 μg∙mL^−1, 48 h) [%] | Inhibition percentage against C. neoformans ATCC 32264 (C. neoformans ATCC 32264; 15.6 μg∙mL^−1, 48 h) [%] | Inhibition percentage against C. neoformans ATCC 32264 (C. neoformans ATCC 32264; 31.2 μg∙mL^−1, 48 h) [%] | Inhibition percentage against C. neoformans ATCC 32264 (C. neoformans ATCC 32264; 62.5 μg∙mL^−1, 48 h) [%] | Inhibition percentage against C. neoformans ATCC 32264 (C. neoformans ATCC 32264; 125 μg∙mL^−1, 48 h) [%] | Inhibition percentage against C. neoformans ATCC 32264 (C. neoformans ATCC 32264; 250 μg∙mL^−1, 48 h) [%] | MIC50 (minimum concentration to inhibit 50% of fungal growth), C. neoformans (C. neoformans ATCC 32264) [µg/mL] | IC50 [3] [µM] | IC50 [4] [µM] | further results |
| --- | --- | --- | --- | --- | --- | --- | --- | --- | --- | --- | --- | --- | --- | --- | --- | --- | --- | --- | --- | --- | --- |
| CC(C)c1cc2c3c(c1OC(=O)CCc1cn(CSc4ccccc4)nn1)OC(=O)[C@@]31CCCC(C)(C)[C@@H]1CC2 [Compound 1, 12-O-(3-(((1-phenylthio)methyl)-1H-1,2,3-triazol-4-yl)-propanoyloxy)-11,20-epoxyabieta-8,11,13-trien-20-one] | 0.0 | 0.0 | 0.4 ± 0.2 | 3.5 ± 0.3 | 8.2 ± 0.1 | 17.1 ± 0.1 | 1.9 ± 0.3 | >250 | 81.7 ± 4.3 | 45.1 ± 2.1 | 0.0 | 0.0 | 0.0 | 3.7 ± 0.1 | 3.9 ± 0.4 | 8.9 ± 0.7 | 11.0 ± 0.5 | >250 | 39.2 ± 2.3 | > 100 | Antifungal activity against C. albicans (in words) (C. albicans ATCC 10231; at the assayed concentrations (250–3.9 μg∙mL^−1)): devoid of activity |
| CC(C)c1cc2c3c(c1OC(=O)CCCc1cn(CSc4ccccc4)nn1)OC(=O)C31CCCC(C)(C)C1CC2 (centres unmarked) [Compound 2, 12-O-(4-(((1-phenylthio)methyl)-1H-1,2,3-triazol-4-yl)-butanoyloxy)-11,20-epoxyabieta-8,11,13-trien-20-one] | 1.5 ± 0.1 | 1.9 ± 0.5 | 5.2 ± 0.6 | 15.7 ± 1.8 | 27.9 ± 1.8 | 50.7 ± 0.3 | 8.9 ± 1.8 | 250 | 76 ± 5.1 | 46.9 ± 3.4 | 1.5 ± 0.1 | 1.9 ± 0.5 | 10.3 ± 1.0 | 11.8 ± 0.3 | 20.7 ± 0.6 | 22.1 ± 1.5 | 74.8 ± 2.8 | 250 | 41 ± 2.1 | 80.1 ± 4.3 | – |
